This is an account of results in patent US20150272939A1, “Identification of Small Molecule Inhibitors of Jumonji AT-Rich Interactive Domain 1A (JARID1A) and 1B (JARID1B) Histone Demethylase” (Yale University, priority 2012, published 2015).

Assay [1] concerns the target T1, JARID1B (Homo sapiens, UniProt Q9UGL1).
T1 construct: The FLAG tagged full length JARID1B enzyme was expressed in Sf21 insect cells using FLAG-JARID1B baculoviruses; FLAG (N); made in house; host or cells: Sf21 insect cells (baculovirus)
The experiment in a line: FLAG-JARID1B histone demethylase assay with AlphaScreen detection (HTS and dose response).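 On Assay Signal (percent): compound tested at 20 µM.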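 On Assay − Artifact Signal (percent): compound tested at 20 µM.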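 On all read-outs here: FLAG-tagged JARID1B at 4 nM acting on a biotinylated H3K4me3 peptide, demethylation read by AlphaScreen luminescence, with hits checked against bio-H3K4me2 without enzyme.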 The class given is biochemical. As to conditions: for inhibition at 20 µM: read-out: Inhibitory effect (percent); for Validation result of HTS active: effect of the compound in the JARID1B AlphaScreen demethylase assay: total signal before subtraction of artifact signal. (In Alpha technology, singlet oxygen from a donor bead excites a nearby acceptor bead.)

A short description of assay [2]: AlphaScreen counterscreen against bio-H3K4me2 peptide in the absence of enzyme (artifact signal).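 On all read-outs here: counterscreen run without enzyme against bio-H3K4me2 peptide to remove false positive hits from the JARID1 demethylase AlphaScreen screen.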 As to conditions: for Artifact signal: effect of the compound when it is incubated with bio-H3K4me2 peptide: counterscreen, no enzyme; for Artifact Signal (percent): effect of the compound when incubated with bio-H3K4me2 peptide (counterscreen, no enzyme).
Setting [3] is: high-throughput screen, compound 20 μM, IDs marked *: additional hits under reaction condition with 1 mM α-KG.
Setting [4] is: assay signal minus artifact signal.
Where [5] appears, read: high-throughput screen, compound 20 μM, standard demethylase conditions (10 μM α-KG, 50 μM Fe (II)).
[6] abbreviates: validation of HTS actives, effect of compound in JARID1B AlphaScreen assay.

Where two headings read alike, the source gives them in different places.

T1 sequence (Q9UGL1 whole entry): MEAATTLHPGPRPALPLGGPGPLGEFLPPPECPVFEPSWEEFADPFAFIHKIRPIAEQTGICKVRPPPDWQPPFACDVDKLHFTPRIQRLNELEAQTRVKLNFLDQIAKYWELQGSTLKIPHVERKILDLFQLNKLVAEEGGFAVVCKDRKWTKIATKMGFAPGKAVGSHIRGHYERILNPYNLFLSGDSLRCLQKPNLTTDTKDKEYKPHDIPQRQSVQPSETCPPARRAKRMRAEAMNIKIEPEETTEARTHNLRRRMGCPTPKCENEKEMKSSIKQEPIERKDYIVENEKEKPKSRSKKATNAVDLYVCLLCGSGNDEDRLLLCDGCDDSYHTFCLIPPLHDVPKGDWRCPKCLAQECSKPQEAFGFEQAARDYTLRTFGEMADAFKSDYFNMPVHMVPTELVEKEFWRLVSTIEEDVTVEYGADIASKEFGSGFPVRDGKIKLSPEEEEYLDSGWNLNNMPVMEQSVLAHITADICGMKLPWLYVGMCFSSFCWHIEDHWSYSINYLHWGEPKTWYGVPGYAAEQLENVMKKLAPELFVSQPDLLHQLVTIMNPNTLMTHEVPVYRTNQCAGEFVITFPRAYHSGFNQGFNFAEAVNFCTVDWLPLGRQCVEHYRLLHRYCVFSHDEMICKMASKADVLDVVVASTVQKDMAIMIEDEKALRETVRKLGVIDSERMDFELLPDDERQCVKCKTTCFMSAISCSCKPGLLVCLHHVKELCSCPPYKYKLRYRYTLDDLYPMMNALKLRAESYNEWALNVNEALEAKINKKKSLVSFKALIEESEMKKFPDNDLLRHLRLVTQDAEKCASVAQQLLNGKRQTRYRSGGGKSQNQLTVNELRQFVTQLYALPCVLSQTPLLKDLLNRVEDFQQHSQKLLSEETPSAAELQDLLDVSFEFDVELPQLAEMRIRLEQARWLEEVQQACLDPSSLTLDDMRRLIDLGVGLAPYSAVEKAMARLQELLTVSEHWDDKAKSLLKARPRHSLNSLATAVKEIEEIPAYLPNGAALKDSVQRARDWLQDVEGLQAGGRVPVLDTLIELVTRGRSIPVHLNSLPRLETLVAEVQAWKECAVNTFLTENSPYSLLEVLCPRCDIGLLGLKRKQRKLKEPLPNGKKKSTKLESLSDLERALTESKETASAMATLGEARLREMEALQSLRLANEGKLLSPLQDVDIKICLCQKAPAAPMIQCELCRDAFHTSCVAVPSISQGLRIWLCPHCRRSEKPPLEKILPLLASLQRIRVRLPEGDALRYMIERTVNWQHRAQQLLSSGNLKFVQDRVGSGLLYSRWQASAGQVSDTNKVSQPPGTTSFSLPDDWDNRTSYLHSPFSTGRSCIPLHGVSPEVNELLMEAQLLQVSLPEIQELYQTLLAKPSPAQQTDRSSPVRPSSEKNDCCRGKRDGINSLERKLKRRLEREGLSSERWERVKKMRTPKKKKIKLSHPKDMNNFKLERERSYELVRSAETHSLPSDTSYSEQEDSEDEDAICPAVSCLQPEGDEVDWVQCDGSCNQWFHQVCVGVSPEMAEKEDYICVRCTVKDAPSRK

For `O=c1c(O)cccc2cc(O)c(O)c(O)c12` [YU155440, PURPUROGALLIN, reference compound], the inhibition at 20 µM in assay [1] (setting [3]) amounted to 42.5%. For the same molecule, in assay [1] (validation of HTS actives), the “Validation result of HTS active: effect of the compound in the JARID1B AlphaScreen demethylase assay” value (shortened to “Validation result of HTS active”) is on record as 13.64. The “Artifact signal: effect of the compound when it is incubated with bio-H3K4me2 peptide” value (shortened to “Artifact signal: effect of the compound”) in assay [2] amounted to 6.39.
For `Cc1cccc(NC(c2ccncc2)c2ccc3cccnc3c2O)c1` (centres unmarked) [YU172170], the “Assay − Artifact Signal (percent)” value in assay [1] (setting [4]) is 16.90%. The inhibition at 20 µM in assay [1] (setting [5]) was determined as 70%. The “Assay Signal (percent)” value in assay [1] (setting [6]) stood at 65.09%. Further, the “Artifact Signal (percent)” value in assay [2] worked out at 48.19%.
As for `N#CC(=Cc1ccc(N2CCCCC2)o1)c1ccc([N+](=O)[O-])cc1` (single isomer, unassigned) [YU152765], the “Assay − Artifact Signal (percent)” value in assay [1] (setting [4]) amounted to 9.56%. Moreover, the inhibition at 20 µM in assay [1] (setting [5]) turned out to be 42%. Moreover, the “Assay Signal (percent)” value in assay [1] (setting [6]) came out at 11.96%. For the same molecule, the “Artifact Signal (percent)” value in assay [2] is reported as 2.40%.
As to `COc1ccccc1NC(=O)COc1ccc(CO)cc1Cl` [YU152649], in assay [1] (setting [5]), the inhibition at 20 µM was found to be 99%. Besides, the “Validation result of HTS active” value in assay [1] (validation of HTS actives) is recorded as 6.08. For the same molecule, the “Artifact signal: effect of the compound” value in assay [2] was determined as 0.22.
`CCC(=O)Nc1ccc(N2CCCC2)c(C(=O)O)c1` [YU208199]: the “Assay − Artifact Signal (percent)” value in assay [1] (setting [4]) came out at 17.19%. Further, the inhibition at 20 µM in assay [1] (setting [5]) was 63.4%. Moreover, in assay [1] (setting [6]), the “Assay Signal (percent)” value turned out to be 50.16%. In addition, the “Artifact Signal (percent)” value in assay [2] turned out to be 32.96%.
Consider `O=S(=O)(NN1CCOCC1)c1ccc(Cl)cc1` [YU148050], for which, in assay [1] (setting [4]), the “Assay − Artifact Signal (percent)” value amounted to 17.03%. Moreover, the inhibition at 20 µM in assay [1] (setting [5]) amounted to 36.1%. The “Assay Signal (percent)” value in assay [1] (setting [6]) turned out to be 20.47%. The “Artifact Signal (percent)” value in assay [2] came to 3.44%.
In the case of `CNCCCOc1ccc(OCc2ccccc2)cc1` [YU147640], the inhibition at 20 µM in assay [1] (setting [5]) is 39.1%. Further, the “Validation result of HTS active” value in assay [1] (validation of HTS actives) amounted to 5.15. Besides, in assay [2], the “Artifact signal: effect of the compound” value was −2.82.
Taken in the same sequence, the figures for `O=C(O)CCCC[C@@H]1SC[C@@H]2NC(=O)N[C@@H]21` [YU034331, BIOTIN, reference compound] were 104%, 104.67 and 99.61.
Take `CN(C)[C@@H]1C(O)=C(C(N)=O)C(=O)[C@@]2(O)C(O)=C3C(=O)c4c(O)ccc(Cl)c4[C@@](C)(O)[C@H]3C[C@@H]12` [YU033743, AUREOMYCIN, reference compound]: the “Assay − Artifact Signal (percent)” value in assay [1] (setting [4]) was found to be 27.81%. Besides, the inhibition at 20 µM in assay [1] (setting [3]) amounted to 90%. Moreover, the “Assay Signal (percent)” value in assay [1] (setting [6]) was 28.24%. Further, in assay [2], the “Artifact Signal (percent)” value is listed as 0.43%.
Turning to `CCC1=C[C@H]2CN(C1)Cc1c([nH]c3ccccc13)[C@@](C(=O)OC)(c1cc3c(cc1OC)N(C)[C@H]1[C@@](O)(C(=O)OC)[C@H](OC(C)=O)[C@]4(CC)C=CC[N@]5CC[C@]31[C@@H]54)C2.O=C(O)C(O)C(O)C(=O)O` [YU221030, V[…], reference compound], in assay [1], the “Assay Signal (percent)” value is 38.77%, the “Assay − Artifact Signal (percent)” value turned out to be 20.64% and the inhibition at 20 µM was determined as 42.2%. The “Artifact Signal (percent)” value in assay [2] is given as 18.13%.
Consider `Cc1ccc(C(=O)Nc2cnc(N3CCN(c4ccccc4Cl)CC3)c(C(=O)O)c2)cc1` [YU208246], for which the “Assay − Artifact Signal (percent)” value in assay [1] (setting [4]) was found to be 10.41%. Also, the inhibition at 20 µM in assay [1] (setting [5]) turned out to be 44.5%. In addition, the “Assay Signal (percent)” value in assay [1] (setting [6]) is 10.32%. The “Artifact Signal (percent)” value in assay [2] is −0.08%.
For `Cc1cccc(C(=O)NNC(=S)NC(=O)CC(C)C)c1` [YU149514], the inhibition at 20 µM in assay [1] (setting [5]) is 48.4%. Besides, the “Validation result of HTS active” value in assay [1] (validation of HTS actives) is given as −2.24. The “Artifact signal: effect of the compound” value in assay [2] is −8.22.
Turning to `Cc1nn2c(=O)[nH]c3sc4c(c3c2nc1=O)CC(C)(C)OC4` [YU152236], the “Assay − Artifact Signal (percent)” value in assay [1] (setting [4]) stood at 43.69%. Besides, in assay [1] (setting [5]), the inhibition at 20 µM was found to be 51.6%. Further, in assay [1] (setting [6]), the “Assay Signal (percent)” value was determined as 49.40%. The “Artifact Signal (percent)” value in assay [2] is recorded as 5.71%.
As for `O=C(O)c1cc(O)c2c(c1)[C@H]([C@H]1c3cc(C(=O)O)cc(O)c3C(=O)c3c(O[C@@H]4O[C@H](CO)[C@H](O)[C@H](O)[C@H]4O)cccc31)c1cccc(O[C@@H]3O[C@H](CO)[C@H](O)[C@H](O)[C@@H]3O)c1C2=O` (stereo in doubt) [YU155305, SENNOSIDE B, reference compound], the inhibition at 20 µM in assay [1] (setting [5]) worked out at 105%. For the same molecule, the “Validation result of HTS active” value in assay [1] (validation of HTS actives) is on record as 4.04. In assay [2], the “Artifact signal: effect of the compound” value was −0.34.
The corresponding values for `O=c1c2c(-c3ccc(Cl)cc3)csc2nc2n1CCC2` [YU150472] are 32.1%, 4.75 and −2.52.
For the molecule `Cn1cnc([N+](=O)[O-])c1Sc1[nH]cnc2ncnc1-2` [YU033698, AZATHIOPRINE, reference compound], the inhibition at 20 µM in assay [1] (setting [5]) amounted to 88.8%. Moreover, in assay [1] (validation of HTS actives), the “Validation result of HTS active” value came out at 10.40. In assay [2], the “Artifact signal: effect of the compound” value amounted to 5.31.
`O=C1C=C2CC3(O)COc4c(ccc(O)c4O)C3=C2C=C1O` (centres unmarked) [YU155257, HEMATEIN, reference compound]: the inhibition at 20 µM in assay [1] (setting [5]) was determined as 105%. Besides, in assay [1] (validation of HTS actives), the “Validation result of HTS active” value is recorded as 104.73. Besides, the “Artifact signal: effect of the compound” value in assay [2] was 99.07.
On to `CC(C)=CCc1c2c(c3occ(-c4ccc(O)c(O)c4)c(=O)c3c1O)C=CC(C)(C)O2` [YU033628, POMIFERIN, reference compound], for which the “Inhibitory effect (percent)” value in assay [1] (setting [5]) is 68.25%. For the same molecule, the “Validation result of HTS active” value in assay [1] (validation of HTS actives) came out at 6.60. Moreover, in assay [2], the “Artifact signal: effect of the compound” value is on record as 13.55.
In the case of `Oc1ccc2c(c1)OCC1(O)Cc3cc(O)c(O)cc3C21` (centres unmarked) [YU154998, BRAZILIN, reference compound], the “Assay − Artifact Signal (percent)” value in assay [1] (setting [4]) came to 15.98%. The inhibition at 20 µM in assay [1] (setting [5]) worked out at 70.3%. The “Assay Signal (percent)” value in assay [1] (setting [6]) worked out at 15.51%. The “Artifact Signal (percent)” value in assay [2] is −0.48%.
The corresponding values for `S=C(Nc1ccc2c(c1)OCO2)Nn1cnnc1` [YU147019] are 17.76%, 37.3%, 16.46% and −1.29%.
Regarding `CCC(=O)Nc1ccc(N2CCC(C(N)=O)(N3CCCCC3)CC2)c(C(=O)O)c1` [YU208193], the “Assay − Artifact Signal (percent)” value in assay [1] (setting [4]) is 11.50%. Moreover, the inhibition at 20 µM in assay [1] (setting [5]) was 46.1%. In addition, the “Assay Signal (percent)” value in assay [1] (setting [6]) is recorded as 27.63%. The “Artifact Signal (percent)” value in assay [2] is given as 16.13%.
In the case of `CCC(=O)O[C@]1(C(=O)CCl)[C@@H](C)C[C@H]2[C@@H]3CCC4=CC(=O)C=C[C@]4(C)[C@@]3(F)[C@@H](O)C[C@@]21C` [YU034506, CLOBETASOL PROPIONATE, reference compound], the inhibition at 20 µM in assay [1] (setting [5]) was 98.9%. The “Validation result of HTS active” value in assay [1] (validation of HTS actives) was 5.62. For the same molecule, in assay [2], the “Artifact signal: effect of the compound” value is reported as −1.34.
